Data: patent publication US8115197B2, “Organic semiconductor material, organic semiconductor thin film and organic semiconductor device” (Sony Corporation, priority 2005, dated 2012)

experiment: dissolution into hexane solution at room temperature; type: physicochemical
Description: Also, experiments were carried out in which the polyacene derivative of example 1, the polyacene derivative of example 2, the polyacene derivative of example 3 and the polyacene derivative of example 4 were respectively dissolved into hexane solution at room temperature. […] Also, the polyacene derivative of the inventive example 4 of which number of the substituents is less than that of the polyacene derivative of example 2 by four was dissolved into the hexane solution.

Q: Which “solubility in hexane solution” value does the source give for `CCCCc1c(C(=O)OC)c(C(=O)OC)c(CCCC)c2cc3c(CCCC)c4cc5c(CC)c(CC)c(CC)c(CC)c5cc4c(CCCC)c3cc12` [example 1, 2,3-bis methoxycarbonyl-1,4,6,13-tetrabutyl-8,9,10,11-tetraethyl pentacene] here?
A: Its value is “dissolved”.

Q: For `CCc1c(CC)c(CC)c2cc3c(CC)c4cc5c(CC)c(C(=O)OC)c(C(=O)OC)c(CC)c5cc4c(CC)c3cc2c1CC` [example 2, 2,3-bis methoxycarbonyl-1,4,6,8,9,10,11 13-octaethyl pentacene], which “solubility in hexane solution” value is on record?
A: Its value is “hardly dissolved”.

Q: For `CCCc1c(C(=O)OC)c(C(=O)OC)c(CCC)c2cc3c(CCC)c4cc5c(CC)c(CC)c(CC)c(CC)c5cc4c(CCC)c3cc12` [example 3, 2,3-bis methoxycarbonyl-8,9,10,11-tetra ethyl-1,4,6,13-tetra propyl pentacene], which “solubility in hexane solution” value is on record?
A: Its value is “dissolved”.

Q: Which “solubility in hexane solution” value does the source give for `CCCCc1c(C(=O)OC)c(C(=O)OC)c(CCCC)c2cc3c(CCCC)c4cc5ccccc5cc4c(CCCC)c3cc12` [example 4, 2,3-bis methoxycarbonyl-1,4,6,13-tetrabuyl pentacene] here?
A: Its value is “dissolved”.
